Entries after “also recorded” stand apart in the source; their conditions may differ.
Columns and labels:
Type in all cases: in vivo
Colletotrichum = test: Spots and pitting of infected mango fruits under 7° C.; details: post-harvest treated and infested mango
Procedure: (§1) FIGS. 19A-19G are images and graphs showing the effect of Phe solution on fruit post-harvest rotting under cold temperature resistance. (19A-19B) are images showing post-harvest control and treated mango fruits, respectively, stored in 7° C. […] (19C-19D) are vertical bar graphs showing indices of spots (19C) and pitting (19D) of mango fruits infected by Colletotrichum or Lasiodiplodia under 7° C. (19E-19G) are vertical bar graph showing […] decay was shown at 7° C., and side decay and total decay were shown at 7° C. and 10° C.
(§2) Mango fruits were treated with Phe solution post-harvest. Fruits were stored in either 7° C. or 10° C., and decay was inspected and documented. Post-harvest treatment as described hereinabove reduced stem decay, side decay, and total decay (FIGS. 19E-19G). […] Fruits were both treated with AAA and infested with […] post-harvest. […] (FIGS. 19C-19D).

Lasiodiplodia = test: as above; details: post-harvest treated and infested mango
Procedure: as §1, §2

Anthracnose = Anthracnose incidence on harvested avocado after orchard flowering spray; details: application during orchard flowering; stored at ambient temperature for 14 days; FIG. 23
Source text: (§3) FIGS. 23A-C: Effect of flowering application on disease incidence. Avocado and Mango cv. ‘Kent’ orchards were sprayed with fungicide (Pyrimethanil+Fludioxonil) or with phenylalanine during flowering. (FIG. 23A). Powdery Mildew incidence (percentage) per inflorescence in mango orchard. (FIG. 23B). Anthracnose incidence (percentage) on harvested mango stored at ambient temperature for 12 days. (FIG. 23CB). Anthracnose incidence (percentage) on harvested avocado stored at ambient temperature for 14 days.
(§4) Flowering is one of the more susceptible organs of the tree. Pathogenic fungi can penetrate during flowering and either infect the flower (e.g., powdery mildew) or endophytically colonize the stem and the fruit without causing any visible symptoms. Those fungi (e.g. Colletotrichum and Lasiodiplodia) become active during abiotic stress or during fruit ripening and cause fruit stem-end rot and anthracnose.

Alternaria alternata = test: Postharvest decay of 'Ettinger' avocado fruit, wound inoculated; details: 4 mM phenylalanine, FIG. 5
Procedure: FIGS. 5A-5B are a graph and a photograph showing induced resistance of harvested Avocado fruit to fungal pathogens. FIG. […] A day after dipping the treated or untreated fruits were wound inoculated on four spots in each fruit with 7 μl of Alternaria alternata conidia suspension (10^6 conidia/ml) and the decay area was monitored for 6 days post inoculation (dpi). FIG. 5B is representative pictures of inoculated fruits of control and treatments with 4 mM phenylalanine, 6 days post inoculation.

Powdery Mildew = test: Powdery mildew incidence per inflorescence in mango orchard sprayed during flowering; details: application during orchard flowering; FIG. 23A
Source text: as §3, §4

[1] = Number of flowers and stigmas of Petunia plants
Procedure: FIGS. 22A-22C are vertical bar graphs showing the effect of Phe solution on the number of flowers per plant. Petunia plants were treated once a week for 5 weeks with Phe solution (2 mM, 6 mM, 15 mM, 35 mM, or none, i.e., control). Numbers of flowers were counted and documented over a period of 7 weeks for Petunia ‘easy-rider’ strain (FIG. 22A) and Petunia ‘white dreams’ strain (FIG. 22B).

[2] = Plant growth performance parameters after pre-harvest treatment
Procedure: FIGS. 20A-20I are images and graphs showing the effects of Phe solution on plant growth performance parameters. (20A) is images of plants treated with 2 mM once or twice, once with 4 mM or non-treated (control). (20B-20C) are bar graphs showing plant height (20B) and the % increase in the plant height (20C) in treated and control plants. (20D-20E) are bar graphs showing the number of nodes per plant (20D) and the % increase in the number of nodes (20E) in treated and control plants. (20F-20G) are bar graphs showing the % increase in leaf length (20F) and the % increase in the leaf area (20G) in treated and control plants. (20H-20I) are bar graphs showing plant fresh (e.g., “wet”) weight […] and plant dry weight (20I) in treated and control plants.
Plant were treated with Phe solution pre-harvest, and growth performance parameters, including total height, total weight (“wet” and dry), number of nodes, leaf length, and leaf area were examined.

[3] = Strawberry fruit decay after pre-harvest treatment; details: 1-4 mM solution 3 weeks pre-harvest, FIG. 18
Procedure: FIG. 18 is a graph showing the effect of Phe solution on fruit pre-harvest decay. […] Decay was monitored and documented over a period of 12 days.
Strawberry plants were treated with 1-4 mM solution 3 weeks pre-harvest.

Oidiopsis sicula = test: Oidiopsis powdery mildew on tomato plants; details: 4 mM Phe solution, drench or spray, each treatment; 24 days after treatment; FIG. 12
Procedure: FIG. 12 is a bar graph showing the effect of 4 mM Phe solution on the severity of Oidiopsis sicula powdery mildew on tomato plants. The Phe solution was applied by spraying and by drench on the tomato plants at 3 days before and 4 hours before incubation in the greenhouse Incidence of Oidiopsis powdery mildew was evaluated 24 days after treatment.
Conidia of Oidiopsis sicula were collected from leaves of a diseased plant, suspended in water and sprayed on the tomato plants. The plants were kept in a greenhouse with 18-28° C. Disease severity of Oidiopsis powdery mildew was evaluated on a scale of 0-100% where 100=all leaves covered by disease symptoms.

Oidium neolycopersici = test: Oidium powdery mildew on tomato plants; details: 24 days after treatment
Procedure: The Phe (P) solution was applied by spraying and by drench on the tomato plants at 3 days before and 4 hours before incubation in the greenhouse. Incidence of Oidium powdery mildew was evaluated 24 days after treatment. […] The Phe and shatakh 90 solutions were applied by spraying on the tomato plants at 3 days before and 4 hours before incubation in the greenhouse. Incidence of Oidium powdery mildew was evaluated 24 days after treatment.
Conidia of Oidium neolycopersici were collected from leaves of a diseased plant, suspended in water and sprayed on the tomato plants. The plants were kept in a greenhouse with 18-28° C. Disease severity of Oidium powdery mildew was evaluated on a scale of 0-100% where 100=whole canopy covered by disease symptoms.

N[C@@H](Cc1ccccc1)C(=O)O [Phe, Phenylalanine]
Levels of black spots (Colletotrichum; FIG. 19C): substantially reduced levels
Levels of pitting (Colletotrichum; FIG. 19D): substantially reduced levels
Levels of black spots (Lasiodiplodia; FIG. 19C): substantially reduced levels
Levels of pitting (Lasiodiplodia; FIG. 19D): substantially reduced levels
Postharvest anthracnose in avocado (Anthracnose): reduced
Decay severity in comparison to the untreated control fruits (Alternaria alternata): reduced the decay severity
Mango powdery mildew (Powdery Mildew): reduced
Number of flowers ([1]; Phe solution once a week for 5 weeks vs control, FIGS. 22A-22B): more flowers
Number of stigmas ([1]; Phe solution vs control, FIG. 22C): more flowers and stigmas; also recorded: more stigmas compared to control
Plant height ([2]; 2 mM or 4 mM of Phe vs control, FIGS. 20A-20C): significantly higher than control
Final weight at harvest, total "wet" weight ([2]; Phe treated vs control, FIG. 20H): significantly greater than control
Final weight at harvest, total dry biomass ([2]; Phe treated vs control, FIG. 20I): significantly greater than control
Number of nodes on the plant's stem ([2]; Phe treated vs control, FIGS. 20D-20E): increase in height was also correlated with the number of nodes
Leaf length ([2]; control compared to plants treated with 4 mM Phe): control plants had significantly shorter leaves
Leaf area ([2]; control compared to plants treated with Phe, 2 mM or 4 mM once a week): reduced leaf area compared to those of plants treated with Phe
Amount of rotten fruits (decay incidence) [3]: substantially reduced amount of rotten fruits
Severity of Oidiopsis powdery mildew on tomato leaves (Oidiopsis sicula): significantly suppressed
Severity of Oidium powdery mildew on tomato leaves (Oidium neolycopersici; 4 mM Phe solution, drench or spray, each treatment, FIG. 11A): significantly suppressed
Severity of Oidium powdery mildew on tomato leaves (Oidium neolycopersici; spray, 4 mM Phe, 0.1% Shatah 90, or combination, FIG. 11B): significantly suppressed

— patent US20200383327A1, “METHOD OF IMPROVING PLANT PERFORMANCE” (The State of Israel, Ministry of Agriculture & Rural …, priority 2018, published 2020)
